Test results taken from patent US20240199654A1, “CTLA-4 SMALL MOLECULE DEGRADATION AGENT AND APPLICATION THEREOF” (SUZHOU GUOKUANG PHARMTECH. CO., LTD., priority 2021, published 2024).

Biological target: T1, LRBA and CTLA-4 reporting system (Homo sapiens, UniProt P16410+P50851)
T1 construct: expressed in transfected cells; host or cells: HEK293
Assay: LRBA/CTLA-4 protein-protein interaction reporting system, dual luciferase assay in HEK293 cells
Assay type: cell-based
Conditions: HEK293 cells co-transfected with LRBA and CTLA-4 reporting system, 24 h after dosing; read-out: In vitro activity (IC50: concentration of compounds that inhibit 50% of reporting system activity)
Experimental: HEK293 cells were spread on 96-well plates, and LRBA and CTLA-4 reporting system were co-transfected into HEK293 cells after 24 h. After 24 h, different compounds with final concentrations of 0.01, 0.033, 0.10, 0.33, 1.00, 3.33, 10.00, 33.33, and 100.00 μM were added. 24 h after dosing, the cell culture medium was removed and the cells were washed with cold PBS. Then the activity of the compounds were detected by the dual luciferase assay kit, and IC50 values were calculated according to the results.
For the compounds with strong activity (IC50<200 nM), the degradation of CTLA-4 protein was further detected by Western Blot. • IC50: Concentration of compounds that inhibit 50% of reporting system activity The size of IC50 is divided into four levels: • ++++, IC50<200 nM; +++, IC50 is 200-1000 nM; ++, IC50 is 1000-2000 nM; +, IC50>2000 nM.

T1 sequence (P16410 36-223): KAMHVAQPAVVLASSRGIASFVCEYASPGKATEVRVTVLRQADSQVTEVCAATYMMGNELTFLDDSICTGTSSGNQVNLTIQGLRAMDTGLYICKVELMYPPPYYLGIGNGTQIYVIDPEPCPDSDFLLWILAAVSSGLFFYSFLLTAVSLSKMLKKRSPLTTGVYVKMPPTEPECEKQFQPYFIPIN
T1 sequence (P50851 whole entry): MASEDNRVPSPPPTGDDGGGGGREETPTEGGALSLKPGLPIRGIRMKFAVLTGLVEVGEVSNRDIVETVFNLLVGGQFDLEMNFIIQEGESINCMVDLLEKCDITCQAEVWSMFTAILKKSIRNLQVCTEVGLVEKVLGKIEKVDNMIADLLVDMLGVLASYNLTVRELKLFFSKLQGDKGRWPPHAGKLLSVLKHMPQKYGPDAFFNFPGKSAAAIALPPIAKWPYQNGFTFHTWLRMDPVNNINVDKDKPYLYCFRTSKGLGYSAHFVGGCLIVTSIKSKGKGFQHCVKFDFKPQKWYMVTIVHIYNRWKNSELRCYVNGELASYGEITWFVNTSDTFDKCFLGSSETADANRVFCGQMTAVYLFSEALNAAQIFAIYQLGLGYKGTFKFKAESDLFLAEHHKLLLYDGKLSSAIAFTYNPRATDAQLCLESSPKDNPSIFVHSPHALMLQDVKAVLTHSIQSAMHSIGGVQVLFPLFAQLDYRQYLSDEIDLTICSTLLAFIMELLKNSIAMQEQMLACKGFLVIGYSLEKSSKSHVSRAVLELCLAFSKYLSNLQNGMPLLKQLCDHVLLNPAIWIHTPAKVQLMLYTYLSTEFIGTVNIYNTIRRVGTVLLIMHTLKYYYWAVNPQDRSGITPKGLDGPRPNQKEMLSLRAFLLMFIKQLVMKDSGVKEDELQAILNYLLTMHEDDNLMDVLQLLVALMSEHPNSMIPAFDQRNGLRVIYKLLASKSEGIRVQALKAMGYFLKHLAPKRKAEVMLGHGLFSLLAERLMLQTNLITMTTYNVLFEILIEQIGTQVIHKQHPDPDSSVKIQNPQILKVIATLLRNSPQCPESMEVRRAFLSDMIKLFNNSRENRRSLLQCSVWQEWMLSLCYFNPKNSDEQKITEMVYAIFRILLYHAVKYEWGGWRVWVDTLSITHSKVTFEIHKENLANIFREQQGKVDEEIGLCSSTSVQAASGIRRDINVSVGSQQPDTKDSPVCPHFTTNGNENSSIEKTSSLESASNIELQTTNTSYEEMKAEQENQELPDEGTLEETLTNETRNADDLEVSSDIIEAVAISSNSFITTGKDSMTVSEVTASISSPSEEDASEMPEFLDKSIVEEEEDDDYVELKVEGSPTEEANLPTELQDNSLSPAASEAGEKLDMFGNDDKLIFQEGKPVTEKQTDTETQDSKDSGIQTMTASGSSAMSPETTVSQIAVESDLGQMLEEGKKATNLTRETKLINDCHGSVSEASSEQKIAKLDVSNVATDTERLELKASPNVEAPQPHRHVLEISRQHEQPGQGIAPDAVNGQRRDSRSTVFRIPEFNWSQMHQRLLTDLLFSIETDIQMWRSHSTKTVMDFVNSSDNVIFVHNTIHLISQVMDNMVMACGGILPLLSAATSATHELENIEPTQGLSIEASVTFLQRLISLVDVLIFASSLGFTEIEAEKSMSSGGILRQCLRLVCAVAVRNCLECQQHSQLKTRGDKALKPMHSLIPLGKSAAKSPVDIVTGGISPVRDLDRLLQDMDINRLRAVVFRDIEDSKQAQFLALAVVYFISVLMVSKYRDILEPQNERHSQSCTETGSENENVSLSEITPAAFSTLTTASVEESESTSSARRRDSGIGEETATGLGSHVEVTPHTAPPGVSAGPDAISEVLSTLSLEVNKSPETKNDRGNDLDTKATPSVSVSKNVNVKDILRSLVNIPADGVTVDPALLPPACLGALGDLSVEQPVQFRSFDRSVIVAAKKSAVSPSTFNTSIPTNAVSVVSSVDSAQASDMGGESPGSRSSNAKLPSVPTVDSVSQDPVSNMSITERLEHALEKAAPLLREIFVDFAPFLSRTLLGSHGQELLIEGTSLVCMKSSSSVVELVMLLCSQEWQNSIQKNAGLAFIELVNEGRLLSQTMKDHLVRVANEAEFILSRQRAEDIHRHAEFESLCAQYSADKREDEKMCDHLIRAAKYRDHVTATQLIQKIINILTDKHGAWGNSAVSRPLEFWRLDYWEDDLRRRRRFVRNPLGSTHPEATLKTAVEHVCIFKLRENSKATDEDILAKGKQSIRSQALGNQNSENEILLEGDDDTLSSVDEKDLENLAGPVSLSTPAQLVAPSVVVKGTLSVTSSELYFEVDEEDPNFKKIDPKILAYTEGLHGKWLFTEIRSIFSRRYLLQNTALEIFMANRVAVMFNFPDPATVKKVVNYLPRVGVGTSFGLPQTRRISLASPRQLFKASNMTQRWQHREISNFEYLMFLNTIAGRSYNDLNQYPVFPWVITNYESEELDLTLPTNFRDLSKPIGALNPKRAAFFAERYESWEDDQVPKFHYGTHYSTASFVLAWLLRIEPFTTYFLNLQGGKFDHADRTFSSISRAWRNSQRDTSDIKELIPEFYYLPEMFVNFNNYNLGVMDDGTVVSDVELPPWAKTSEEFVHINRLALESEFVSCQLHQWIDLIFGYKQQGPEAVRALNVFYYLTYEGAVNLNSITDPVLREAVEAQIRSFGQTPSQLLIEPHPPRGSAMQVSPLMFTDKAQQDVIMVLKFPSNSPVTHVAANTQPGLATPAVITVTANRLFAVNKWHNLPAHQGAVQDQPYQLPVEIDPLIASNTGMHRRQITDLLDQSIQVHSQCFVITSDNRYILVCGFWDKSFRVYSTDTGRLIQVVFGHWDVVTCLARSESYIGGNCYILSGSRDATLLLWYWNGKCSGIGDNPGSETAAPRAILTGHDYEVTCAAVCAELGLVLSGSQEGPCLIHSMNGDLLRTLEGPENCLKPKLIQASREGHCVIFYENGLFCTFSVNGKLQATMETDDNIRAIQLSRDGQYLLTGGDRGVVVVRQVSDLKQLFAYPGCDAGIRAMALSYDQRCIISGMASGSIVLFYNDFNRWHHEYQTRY

| Structure (SMILES) | IC50 |
| --- | --- |
| c1ccc2cc(-c3ccnc(N4CCNCC4)n3)ccc2c1 [Comparing compound 1, reference compound] | > 2000 nM |
| NCC1CCN(c2nccc(-c3cnc4ccccc4c3)n2)CC1 [Compound 1, (1-(4-(quinolin-3-yl)pyrimidin-2-yl)piperidin-4-yl)methylamine] | < 200 nM |
| O=CNCC1CCN(c2nccc(-c3cnc4ccccc4c3)n2)CC1 [Compound 2, N-((1-(4-(quinolin-3-yl)pyrimidin-2-yl)piperidin-4-yl)methyl)formamide] | > 2000 nM |
| NCC1CCN(c2nccc(-c3ccc4ncccc4c3)n2)CC1 [Compound 3, (1-(4-(quinolin-6-yl)pyrimidin-2-yl)piperidin-4-yl)methylamine] | > 2000 nM |
| O=CNCC1CCN(c2nccc(-c3ccc4ncccc4c3)n2)CC1 [Compound 4, N-((1-(4-(quinolin-6-yl)pyrimidin-2-yl)piperidin-4-yl)methyl)formamide] | > 2000 nM |
| NCC1CCN(c2nccc(-c3ccc4ccccc4n3)n2)CC1 [Compound 5, (1-(4-(quinolin-2-yl)pyrimidin-2-yl)piperidin-4-yl)methylamine] | > 2000 nM |
| NCC1CCN(c2nccc(-c3cnc4ccc(F)cc4c3)n2)CC1 [Compound 7, (1-(4-(6-fluoroquinolin-3-yl)pyrimidin-2-yl)piperidin-4-yl)methylamine] | 200 to 1000 nM |
| NCC1CCN(c2nccc(-c3cc4ccccc4nc3N3CCC(CN)CC3)n2)CC1 [Compound 8, (1-(3-(2-(4-(aminomethyl)piperidin-1-yl)pyrimidin-4-yl)quinolin-2-yl)piperidin-4-yl)methylamine] | 1000 to 2000 nM |
| COc1nc2ccccc2cc1-c1ccnc(N2CCC(CN)CC2)n1 [Compound 9, (1-(4-(2-methoxyquinolin-3-yl)pyrimidin-2-yl)piperidin-4-yl)methylamine] | < 200 nM |
| NCC1CCN(c2nccc(-c3cc4ccccc4nc3O)n2)CC1 [Compound 10, 3-(2-(4-(aminomethyl)piperidin-1-yl)pyrimidin-4-yl)quinolin-2-ol] | < 200 nM |
| [2H]c1nc2ccccc2cc1-c1ccnc(N2CCC(CN)CC2)n1 [Compound 11, (1-(4-(quinolin-3-yl-2-d)pyrimidin-2-yl)piperidin-4-yl)methylamine] | < 200 nM |
| NCC1CCN(c2cc(-c3cnc4ccccc4c3)ccn2)CC1 [Compound 12, (1-(4-(quinolin-3-yl)pyridin-2-yl)piperidin-4-yl)methylamine] | > 2000 nM |
| NCC1CCN(c2nccc(-c3cc(=O)c4ccccc4o3)n2)CC1 [Compound 13, 2-(2-(4-(aminomethyl)piperidin-1-yl)pyrimidin-4-yl)-4hydro-benzopyran-4-one] | > 2000 nM |
| NCC1CCN(c2cccc(-c3cnc4ccccc4c3)n2)CC1 [Compound 14, (1-(6-(quinolin-3-yl)pyridin-2-yl)piperidin-4-yl)methylamine] | > 2000 nM |
| NCC1CCN(c2cccc(-c3cnc4ccccc4c3)c2)CC1 [Compound 15, (1-(3-(quinolin-3-yl)phenyl)piperidin-4-yl)methylamine] | > 2000 nM |
| NCC1CCN(c2nccc(-c3cc4ccccc4nc3N)n2)CC1 [Compound 16, 3-(2-(4-(aminomethyl)piperidin-1-yl)pyrimidin-4-yl)quinolin-2-amine] | > 2000 nM |
| NC1CCN(c2nccc(-c3cnc4ccccc4c3)n2)CC1 [Compound 17, 1-(4-(quinolin-3-yl)pyrimidin-2-yl)piperidine-4-amine] | 200 to 1000 nM |
| NCCC1CCN(c2nccc(-c3cnc4ccccc4c3)n2)CC1 [Compound 19, 2-(1-(4-(quinolin-3-yl)pyrimidin-2-yl)piperidin-4-yl)ethylamine] | 200 to 1000 nM |
| OCC1CCN(c2nccc(-c3cnc4ccccc4c3)n2)CC1 [Compound 20, (1-(4-(quinolin-3-yl)pyrimidin-2-yl)piperidin-4-yl)methanol] | > 2000 nM |
| OCCC1CCN(c2nccc(-c3cnc4ccccc4c3)n2)CC1 [Compound 21, (1-(4-(quinolin-3-yl)pyrimidin-2-yl)piperidin-4-yl)ethanol] | > 2000 nM |
